# Laboratory results published in ChEMBL document CHEMBL1201862, “PubChem BioAssay data set” (2004).
#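 Tested at 5 concentrations; 48 h exposure; 96-well plates; endpoints linearly interpolated, else capped at highest concentration. GI50 = concentration required for 50% inhibition of growth.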 Active and inactive are the calls of the source. Rule as the data show it: active = GI50 up to about 1.1 µM and inactive = higher.
# Key:
# Assay in all cases: NCI anticancer screen, dose series, 48 h
# SK-OV-3 = system: SK-OV-3
# HT-29 = system: HT-29
# KM-20L2 = system: KM-20L2
# SN12C = system: SN12C
# SK-MEL-5 = system: SK-MEL-5
# XF498 = system: XF498
# HOP-18 = system: HOP-18
# TK-10 = system: TK-10
# U-251 = system: U-251
# SK-MEL-28 = system: SK-MEL-28
# RXF 393 = system: RXF 393
# OVCAR-8 = system: OVCAR-8
# SK-MEL-2 = system: SK-MEL-2
# ACHN = system: ACHN
# DMS-114 = system: DMS-114
# K562 = system: K562
# NCI-H226 = system: NCI-H226
# OVCAR-4 = system: OVCAR-4
# 786-0 = system: 786-0
# UACC-62 = system: UACC-62
# DMS-273 = system: DMS-273
# OVCAR-3 = system: OVCAR-3
# SR = system: SR
# SF-539 = system: SF-539
# DLD-1 = system: DLD-1
# NCI-H522 = system: NCI-H522
# IGROV-1 = system: IGROV-1
# RPMI-8226 = system: RPMI-8226
# COLO 205 = system: COLO 205
# HCT-15 = system: HCT-15
# SNB-78 = system: SNB-78
# M14 = system: M14
# M19-MEL = system: M19-MEL
# HL-60 = system: HL-60
# KM12 = system: KM12
# Malme-3M = system: Malme-3M
# NCI-H460 = system: NCI-H460
# SF-295 = system: SF-295
# A549 = system: A549
# HOP-62 = system: HOP-62
# SW-620 = system: SW-620
# UACC-257 = system: UACC-257
# OVCAR-5 = system: OVCAR-5
# SF-268 = system: SF-268
# LOX IMVI = system: LOX IMVI
# NCI-H23 = system: NCI-H23
# LXFL 529 = system: LXFL 529
# HCC 2998 = system: HCC 2998
# EKVX = system: EKVX
# CCRF-CEM = system: CCRF-CEM
# A498 = system: A498
# HCT-116 = system: HCT-116
# MOLT-4 = system: MOLT-4
# CAKI-1 = system: CAKI-1
# HOP-92 = system: HOP-92
# UO-31 = system: UO-31
# SNB-19 = system: SNB-19
# SNB-75 = system: SNB-75
compound,measurement,setting,value
C=C1Cc2cc(OC)c(OC)c(OC)c2-c2ccc(SC)c(=O)cc21,GI50,SK-OV-3,< 0.01 µM (active)
same,GI50,HT-29,< 0.01 µM (active)
same,GI50,KM-20L2,< 0.01 µM (active)
same,GI50,SN12C,< 0.01 µM (active)
same,GI50,SK-MEL-5,< 0.01 µM (active)
same,GI50,XF498,< 0.01 µM (active)
same,GI50,HOP-18,4.92 µM (inactive)
same,GI50,TK-10,0.916 µM (active)
same,GI50,U-251,< 0.01 µM (active)
same,GI50,SK-MEL-28,< 0.01 µM (active)
same,GI50,RXF 393,< 0.01 µM (active)
same,GI50,OVCAR-8,< 0.01 µM (active)
same,GI50,SK-MEL-2,< 0.01 µM (active)
same,GI50,ACHN,< 0.01 µM (active)
same,GI50,DMS-114,< 0.01 µM (active)
same,GI50,K562,< 0.01 µM (active)
same,GI50,NCI-H226,< 0.01 µM (active)
same,GI50,OVCAR-4,4.26 µM (inactive)
same,GI50,786-0,< 0.01 µM (active)
same,GI50,UACC-62,< 0.01 µM (active)
same,GI50,DMS-273,< 0.01 µM (active)
same,GI50,OVCAR-3,< 0.01 µM (active)
same,GI50,SR,< 0.01 µM (active)
same,GI50,SF-539,< 0.01 µM (active)
same,GI50,DLD-1,< 0.01 µM (active)
same,GI50,NCI-H522,< 0.01 µM (active)
same,GI50,IGROV-1,< 0.0424 µM (active)
same,GI50,RPMI-8226,< 0.01 µM (active)
same,GI50,COLO 205,< 0.01 µM (active)
same,GI50,HCT-15,< 0.01 µM
same,GI50,SNB-78,< 0.01 µM (active)
same,GI50,M14,< 0.01 µM (active)
same,GI50,M19-MEL,< 0.01 µM (active)
same,GI50,HL-60,< 0.01 µM (active)
same,GI50,KM12,< 0.01 µM (active)
same,GI50,Malme-3M,< 0.01 µM (active)
same,GI50,NCI-H460,< 0.01 µM (active)
same,GI50,SF-295,< 0.01 µM (active)
same,GI50,A549,< 0.01 µM (active)
same,GI50,HOP-62,< 0.01 µM (active)
same,GI50,SW-620,< 0.01 µM (active)
same,GI50,UACC-257,0.361 µM (active)
same,GI50,OVCAR-5,0.378 µM (active)
same,GI50,SF-268,< 0.01 µM (active)
same,GI50,LOX IMVI,< 0.01 µM (active)
same,GI50,NCI-H23,< 0.01 µM (active)
same,GI50,LXFL 529,< 0.01 µM (active)
same,GI50,HCC 2998,< 0.01 µM (active)
same,GI50,EKVX,1.55 µM (inactive)
same,GI50,CCRF-CEM,< 0.01 µM (active)
same,GI50,A498,< 0.01 µM (active)
same,GI50,HCT-116,< 0.01 µM (active)
same,GI50,MOLT-4,< 0.01 µM (active)
N#CC1CC(c2ccccc2)Nc2cc(Cl)ccc2N1 (stereo not drawn),GI50,SK-OV-3,> 100 µM (inactive)
same,GI50,HT-29,24.4 µM (inactive)
same,GI50,KM-20L2,43.7 µM (inactive)
same,GI50,SN12C,63.1 µM (inactive)
same,GI50,SK-MEL-5,41.2 µM (inactive)
same,GI50,XF498,29.7 µM (inactive)
same,GI50,HOP-18,> 87.1 µM (inactive)
same,GI50,TK-10,> 100 µM (inactive)
same,GI50,U-251,30.7 µM (inactive)
same,GI50,SK-MEL-28,> 93.8 µM (inactive)
same,GI50,RXF 393,38.8 µM (inactive)
same,GI50,OVCAR-8,33 µM (inactive)
same,GI50,SK-MEL-2,29.1 µM (inactive)
same,GI50,ACHN,61.5 µM (inactive)
same,GI50,DMS-114,5.78 µM (inactive)
same,GI50,K562,9.14 µM (inactive)
same,GI50,NCI-H226,> 100 µM (inactive)
same,GI50,CAKI-1,34.8 µM (inactive)
same,GI50,OVCAR-4,40.5 µM (inactive)
same,GI50,786-0,24.1 µM (inactive)
same,GI50,UACC-62,31.6 µM (inactive)
same,GI50,DMS-273,31.2 µM (inactive)
same,GI50,OVCAR-3,19.3 µM (inactive)
same,GI50,SR,14.3 µM (inactive)
same,GI50,SF-539,38.3 µM (inactive)
same,GI50,DLD-1,28.9 µM (inactive)
same,GI50,NCI-H522,3.68 µM (inactive)
same,GI50,IGROV-1,69.7 µM (inactive)
same,GI50,HOP-92,26.7 µM (inactive)
same,GI50,RPMI-8226,6.31 µM (inactive)
same,GI50,COLO 205,7.11 µM (inactive)
same,GI50,HCT-15,13.8 µM
same,GI50,UO-31,> 100 µM (inactive)
same,GI50,SNB-78,50.7 µM (inactive)
same,GI50,M14,24.3 µM (inactive)
same,GI50,M19-MEL,44.8 µM (inactive)
same,GI50,HL-60,4.1 µM (inactive)
same,GI50,KM12,34.8 µM (inactive)
same,GI50,Malme-3M,24 µM (inactive)
same,GI50,NCI-H460,35.4 µM (inactive)
same,GI50,SF-295,40.9 µM (inactive)
same,GI50,A549,37.6 µM (inactive)
same,GI50,HOP-62,55.7 µM (inactive)
same,GI50,SNB-19,> 50.5 µM (inactive)
same,GI50,SW-620,4.5 µM (inactive)
same,GI50,UACC-257,> 81.7 µM (inactive)
same,GI50,OVCAR-5,> 100 µM (inactive)
same,GI50,SNB-75,36.5 µM (inactive)
same,GI50,SF-268,45.2 µM (inactive)
same,GI50,LOX IMVI,33.1 µM (inactive)
same,GI50,NCI-H23,31.6 µM (inactive)
same,GI50,LXFL 529,21 µM (inactive)
same,GI50,HCC 2998,> 100 µM (inactive)
same,GI50,EKVX,> 79.6 µM (inactive)
same,GI50,CCRF-CEM,3.18 µM (inactive)
same,GI50,A498,> 100 µM (inactive)
same,GI50,HCT-116,19.3 µM (inactive)
same,GI50,MOLT-4,10.9 µM (inactive)
COc1ccc(NC(=O)C(=O)C(C(=O)c2ccccc2)C2OC(=O)c3ccccc32)c([N+](=O)[O-])c1 (stereo not drawn),GI50,SK-OV-3,> 100 µM (inactive)
same,GI50,HT-29,> 100 µM (inactive)
same,GI50,KM-20L2,> 100 µM (inactive)
same,GI50,SN12C,> 100 µM (inactive)
same,GI50,SK-MEL-5,> 100 µM (inactive)
same,GI50,XF498,> 100 µM (inactive)
same,GI50,HOP-18,> 100 µM (inactive)
same,GI50,TK-10,> 100 µM (inactive)
same,GI50,U-251,> 100 µM (inactive)
same,GI50,SK-MEL-28,> 100 µM (inactive)
same,GI50,RXF 393,> 100 µM (inactive)
same,GI50,OVCAR-8,> 100 µM (inactive)
same,GI50,SK-MEL-2,> 100 µM (inactive)
same,GI50,ACHN,> 100 µM (inactive)
same,GI50,DMS-114,> 100 µM (inactive)
same,GI50,K562,> 100 µM (inactive)
same,GI50,NCI-H226,> 100 µM (inactive)
same,GI50,CAKI-1,> 100 µM (inactive)
same,GI50,OVCAR-4,> 100 µM (inactive)
same,GI50,786-0,> 100 µM (inactive)
same,GI50,UACC-62,> 100 µM (inactive)
same,GI50,DMS-273,> 100 µM (inactive)
same,GI50,SR,> 100 µM (inactive)
same,GI50,SF-539,> 100 µM (inactive)
same,GI50,DLD-1,> 100 µM (inactive)
same,GI50,NCI-H522,> 100 µM (inactive)
same,GI50,IGROV-1,> 100 µM (inactive)
same,GI50,HOP-92,> 100 µM (inactive)
same,GI50,RPMI-8226,> 100 µM (inactive)
same,GI50,COLO 205,> 100 µM (inactive)
same,GI50,HCT-15,> 100 µM
same,GI50,UO-31,> 100 µM (inactive)
same,GI50,SNB-78,> 100 µM (inactive)
same,GI50,M14,> 100 µM (inactive)
same,GI50,M19-MEL,> 100 µM (inactive)
same,GI50,HL-60,> 100 µM (inactive)
same,GI50,KM12,> 100 µM (inactive)
same,GI50,Malme-3M,> 100 µM (inactive)
same,GI50,NCI-H460,> 100 µM (inactive)
same,GI50,SF-295,> 100 µM (inactive)
same,GI50,A549,> 100 µM (inactive)
same,GI50,HOP-62,> 100 µM (inactive)
same,GI50,SNB-19,> 100 µM (inactive)
same,GI50,SW-620,> 100 µM (inactive)
same,GI50,UACC-257,> 100 µM (inactive)
same,GI50,OVCAR-5,> 100 µM (inactive)
same,GI50,SNB-75,> 100 µM (inactive)
same,GI50,SF-268,> 100 µM (inactive)
same,GI50,LOX IMVI,> 100 µM (inactive)
same,GI50,NCI-H23,> 100 µM (inactive)
same,GI50,LXFL 529,> 100 µM (inactive)
same,GI50,HCC 2998,> 100 µM (inactive)
same,GI50,EKVX,> 100 µM (inactive)
same,GI50,CCRF-CEM,> 100 µM (inactive)
same,GI50,A498,> 100 µM (inactive)
same,GI50,HCT-116,> 100 µM (inactive)
same,GI50,MOLT-4,> 100 µM (inactive)
